In brackets after ≈: the same amount, converted by molar mass. Read-outs that look alike come from different tables or passages of the source.
Tests used:
[1] = target: T1, oleamide hydrolase (Rattus norvegicus, UniProt P97612); assay: Oleamide hydrolase inhibition, ammonia production measured with ion-selective electrode; assay type: biochemical
T1 construct: The enzyme was used as a crude, heterogenous, membrane-containing preparation from rat liver; from tissue; host or cells: rat liver plasma membrane preparation (12-14 rat livers), crude
T1 sequence (P97612 1-579): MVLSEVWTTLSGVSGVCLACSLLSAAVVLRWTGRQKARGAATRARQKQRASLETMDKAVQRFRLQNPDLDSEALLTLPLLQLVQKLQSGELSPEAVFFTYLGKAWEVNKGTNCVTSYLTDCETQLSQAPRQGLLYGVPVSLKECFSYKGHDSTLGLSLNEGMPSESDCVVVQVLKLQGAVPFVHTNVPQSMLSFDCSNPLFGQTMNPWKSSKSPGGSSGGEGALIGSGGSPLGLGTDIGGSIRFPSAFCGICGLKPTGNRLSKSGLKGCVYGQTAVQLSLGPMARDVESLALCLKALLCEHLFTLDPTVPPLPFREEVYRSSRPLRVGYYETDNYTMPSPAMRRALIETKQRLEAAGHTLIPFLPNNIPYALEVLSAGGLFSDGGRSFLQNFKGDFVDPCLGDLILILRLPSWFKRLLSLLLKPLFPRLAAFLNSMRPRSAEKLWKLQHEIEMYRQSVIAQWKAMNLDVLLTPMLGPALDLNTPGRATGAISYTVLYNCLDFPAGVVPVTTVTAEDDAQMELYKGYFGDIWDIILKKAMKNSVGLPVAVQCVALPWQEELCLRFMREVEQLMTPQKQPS
Experimental: Error values presented with Ki s should be considered goodness-of-fit estimates derived from propagation of errors treatment of data. They are not necessarily an indication of reproducibility.
Twelve to fourteen rat livers were sectioned and placed in 300 mL of 1 mM NaHCO3. The solution of diced liver was strained and washed with additional 300 mL of 1 mM NaHCO3. Any conspicuous connective tissue was removed. The liver was transferred to a fresh 800 mL of 1 mM NaHCO3, stirred and then transferred in 400 mL aliquots to a blender. Blended liver aliquots were combined and filtered through 8 layers of cheesecloth. This was diluted to 1.0 L with 1 μM NaHCO3 and centrifuged at 6000 rpm for 20 minutes at 40° C. (Beckman JA-17 rotor). The supernatant was decanted, the pellets resuspended in 1 mM NaHCO3, combined and dounce homogenized. Centrifugation, decantation and resuspension/homogenization were repeated to give a final volume of approximately 90 mL. The homogenate was added to 2 volume equivalents of 67% sucrose, mixed thoroughly, and transferred to ultracentrifuge compatible tubes. The tubes were topped with 30% sucrose and spun at 27,000 for 2 hours (SW-28 rotor). The middle yellow band was removed from the sucrose gradient, combined, resuspended in 1 mM NaHCO3, and dounce homogenized. The sample was further centrifuged at 17,000 rpm for 45 minutes at 4° C. (JA-17 rotor). The supernatant was removed, the pellets resuspended in 100 mM Na2 CO3, dounce homogenized and left on ice for 30 minutes. The solution was centrifuged at 27,000 rpm for 1 hour (SW-28 rotor), the supernatant was decanted and the pellet resuspended in 15 mL of 50 mM Tris HCl, pH 7.4 with 1 mM EDTA, and homogenized with a dounce homogenizer. This material was divided into multiple aliquots and frozen at -78° C. until use. Each enzyme sample was frozen once only.

[2] = target: T1, oleamide hydrolase; assay: Determination of Km for oleamide (Lineweaver-Burke plot); assay type: biochemical
Experimental: The potency of the inhibitors was determined using an ion selective electrode to measure the production of ammonia as the result of the hydrolysis of 100 μM oleamide (~20 Km) by a membrane bound preparation of oleamide hydrolase. […] Inhibition constants were determined by the Dixon method (FIGS. 4-6).
The enzyme was used as a crude, heterogenous, membrane-containing preparation from rat liver. […] Within solubility limits, all inhibitors achieved 100% inhibition of activity at concentrations of greater than 100 Ki. No detectable activity was found in the absence of added oleamide.
The Km for oleamide was determined as the average Km obtained from four independent assays. Each independent Km was obtained from weighted linear fit of data in a Lineweaver-Burke plot. A fifth concurring Km was obtained as a result of the determination of oleic acid inhibition by non-linear methods. The rate data was fit with the standard Michaelis-Menten kinetic equation.

[3] = target: T1, oleamide hydrolase; assay: pH-rate dependence of oleamide hydrolase cleavage of oleamide; assay type: biochemical; conditions: cleavage of compound 1
Experimental: FIG. 12 illustrates the equations used to determine the pH-Rate dependence. The rate was obtained from the linear portion of the curve which was fit using a standard least squares procedure. These rates were replotted against pH and fit with the shown equation by a weighted non-linear least-squares method.
Crude enzyme was added to a solution of 200 μM oleamide (approximately the solubility limit) 1 in 20 mL buffer at the appropriate pH, containing 5% DMSO. (Concentrations of up to 20% DMSO had only minimal effect on enzyme rates.) A 50 mM sodium citrate/Bis-tris buffer was used for data points in the pH 4-9 range. A 50 mM Bis-tris/CAPS was used for data points in the 8-11 range. At pH 12, the solution was assumed to be self-buffering. At periodic time intervals, 1 mL aliquots were removed and diluted with 9 mL pH 14 buffer. Ammonia concentrations were measured with an ion-selective ammonia electrode (Orion) connected to a 720 A meter (Orion), calibrated against known standards. The rate was obtained from the linear portion of the curve which was fit using a standard least-squares procedure. […]

[4] = test system: animals; conditions: cited from earlier work; for somnolescent activity: in vivo
[5] = Ammonia production from oleamide in the absence of enzyme; assay type: physicochemical; conditions: 100 μM oleamide, pH 10.0
Experimental: The potency of the these compounds against oleamide hydrolysis was evaluated using an ion-selective ammonia electrode (ATI/Orion) to directly measure ammonia formation as the product of the reaction. All Ki s except for that of oleic acid were determined by the Dixon method. (X intercepts of weighted linear fits of [I] versus 1/Rate plots at a constant substrate concentration were converted to Ki 's using the formula Ki =-Xint /[1+[S]/Km ].) The oleic acid Ki was obtained from a non-linear weighted least-squares fit of rate versus substrate and inhibitor concentrations. The assays were done with constant stirring in 10 mL 50 mM CAPS buffer (Sigma) adjusted to pH 10.0, the pH at which the rate of enzymatically catalyzed oleamide hydrolysis is maximal. In all cases which involved Dixon analysis, the substrate concentration was 100 μM. The oleic acid Ki was determined over a range of substrate concentrations from 10 to 100 μM. Substrate and inhibitors were dissolved in DMSO prior to addition to the 50 mM CAPS buffer, generating a final DMSO assay concentration of 1.67%. […] The enzyme concentration was adjusted to produce a rate of roughly 0.2 μM/min in the absence of inhibitor and the rate of ammonia production observed over a period of 7 to 10 minutes.
The enzyme was used as a crude, heterogenous, membrane-containing preparation from rat liver. […]

[6] = Solubility of oleamide in assay buffer; assay type: physicochemical; conditions: buffer with 5% dmso, organic solvent or mixture; buffer containing 5% DMSO; read-out: solubility limit
[7] = Extent of hydration / hemiacetal formation of inhibitor carbonyl by 1H and 13C NMR; assay type: physicochemical; conditions: for conversion to hemiacetal: CD3OD, NMR
From the text: FIG. 2 illustrates ^1 H NMR and ^13 C NMR data to establish and quantitate the addition of CD3 OD or D2 O to the electrophilic carbonyl in CD3 OD or acetone-d6. […] Expected trends follow 11>12>8>6≥4.

[8] = test system: rat; assay: Sleep monitoring in rat after intra-abdominal injection, electrophysiological methods; assay type: in vivo; conditions: intraperitoneal, mineral oil, four hours
Experimental: Another aspect of the invention is directed to a method for inducing sleep within an oleamide sensitive animal by administrating an effective dose of an […] of oleamide hydrolase. A preferred […] is compound 6. Compound 6 was dissolved in mineral oil and an effective dose was injected into the peritoneum of a rat by intra-abdominal injection. Sleep was monitored for the following four hours. Total sleep time was determined by standard electrophysiological methods. An increase of deep slow-wave sleep (SWS) with a reduction of the waking period was observed.

[9] = pH 10.0, 100 μM oleamide, Dixon method, read-out: Ki
[10] = pH 10.0, 100 μM oleamide, Dixon method, read-out: inhibition constant (Ki,app)

## c1cc(SSc2ccncc2)ccn1 [4,4'-dithiodipyridine disulfide, reference compound]
[1]
  inhibition of oleamide hydrolase (in words): can be inhibited

## CCCCCCCC/C=C\CCCCCCCC(N)=O [Compound 1, cis-9-octadecenamide]
[2]; 30-100 μM
  dependence of reaction rate on substrate concentration: essentially a zero order dependence on substrate concentration
[2]; average of four independent assays
  Km: 5 ± 2 µM
[3]
  pH of rate maximum: 10.0
[4]; injected intravascularly
  quantity inducing physiological sleep: nanomolar quantities
[5]
  rate of ammonia production in the absence of enzyme: only a very minimal rate of ammonia production
[6]
  solubility: ~200 µM (≈ 56.3 µg/mL)

## CCCCCCCC/C=C\CCCCCCCC(=O)CCl [Compound 3, 1-Chloro-10Z-nonadecen-2-one]
[1]; first fifteen minutes of incubation, up to solubility limits
  time dependence of inhibitory activity: time independent but moderate inhibition
[1]; [9]
  Ki: 0.7 µM

## CCCCCCCC/C=C\CCCCCCCC=O [Compound 4]
[7]
  conversion to hemiacetal: 47%

## CCCCCCCC/C=C\CCCCCCC=O [Compound 5, 8Z-Heptadecenal]
[1]; 5 versus 4
  relative binding, C-2 versus C-1 position of electrophilic carbonyl (aldehydes): five times more tightly than 4

## CCCCCCCC/C=C\CCCCCCC(=O)C(N)=O [Compound 6, 2-Oxo-9Z-octadecenamide]
[8]
  increase of deep slow-wave sleep (SWS): approximately 30%
  reduction of waking: a similar percent of reduction of waking
[7]
  conversion to hemiacetal: 48%

## CCCCCCCC/C=C\CCCCCCCC(=O)C(N)=O [Compound 7, 2-Oxo-10Z-nonadecenamide]
[1]; comparison between inhibitors
  relative binding (in words): binds more tightly

## CCCCCCCC/C=C\CCCCCCC(=O)C(=O)OCC [Compound 8, Ethyl 2-Oxo-9Z-octadecenoate]
[1]; 8 versus 9
  increase in binding affinity, C-2 versus C-1 position of electrophilic carbonyl (α-keto esters): 6 fold
[1]; comparison between inhibitors
  relative binding (in words): bind equally tightly
[1]; [10]
  Ki: 0.0014 µM
[7]
  conversion to hemiacetal: 75%

## CCCCCCCCCCCCCCCC(=O)C(O)(O)C(=O)OC(C)(C)C [Compound 11, tert-Butyl 3-Oxo-2,2-dihydroxyoctadecanoate]
[1]; [10]
  Ki: 0.15 µM
[7]
  hydration of carbonyl (in words): fully hydrated
  conversion to hemiacetal: 100%

## CCCCCCCC/C=C\CCCCCCCC(=O)C(F)(F)F [Compound 12, 1,1,1-Trifluoro-10Z-nonadecen-2-one]
[1]
  Ki: 0.0012 µM
  preference for cis double bond at 9 position: approximately an order of magnitude more tightly than the trans double bond containing 14 or the saturated derivative 15
  relative binding (in words): bind equally tightly
  type of inhibition (Lineweaver-Burke plot): competitive
[7]
  hydration of carbonyl (in words): almost entirely as hydrates
  conversion to hemiacetal: 100%

## CCCCCCCC/C=C\CCCCCCC(=O)C(F)(F)F [Compound 13, 1,1,1-Trifluoro-9Z-octadecen-2-one]
[7]
  hydration of carbonyl (in words): almost entirely as hydrates

## CCCCCCCC/C=C/CCCCCCCC(=O)C(F)(F)F [Compound 14, 1,1,1-Trifluoro-10E-nonadecen-2-one]
[7]
  hydration of carbonyl (in words): almost entirely as hydrates

## CCCCCCCCCCCCCCCCCC(=O)C(F)(F)F [Compound 15]
[7]
  hydration of carbonyl (in words): almost entirely as hydrates

## CCCCCCCC/C=C\CCCCCCCC(OC)OC [Compound 16]
[1]
  inhibition of oleamide hydrolase (in words): poor inhibition

## CCCCCCCC/C=C\CCCCCCC(O)C(N)=O (stereo not drawn) [Compound 17, 2-Hydroxy-9Z-octadecenamide]
[1]
  inhibition of oleamide hydrolase (in words): poor inhibition

## CCCCCCCC/C=C\CCCCCCC(O)C(=O)O (stereo not drawn) [Compound 18]
[1]
  inhibition of oleamide hydrolase (in words): poor inhibition

## CCCCCCCC/C=C\CCCCCCC(Cl)C(=O)O (stereo not drawn) [Compound 20, 2-Chlorcoleic acid]
[1]
  mode of binding (in words): appeared to bind reversibly
[1]; [9]
  Ki: 0.3 µM

## CCCCCCCC/C=C\CCCCCCCC(=O)C=[N+]=[N-] [Compound 21, 1-Diazo-10Z-nonadecen-2-one]
[1]; [9]
  Ki: 18 µM

## O=C(O)CN(CCN(CC(=O)O)CC(=O)O)CC(=O)O [EDTA, reference compound]
[1]
  inhibition of oleamide hydrolase (in words): not by 1 mM EDTA

## [Cl][Hg][Cl] [HgCl2, reference compound]
[1]
  inhibition of oleamide hydrolase (in words): can be inhibited
[1]; HgCl2
  IC50: 0.7 µM
[1]; HgCl2, read-out: Ki, app
  Ki: 0.037 µM

## N [ammonia]
[4]
  somnolescent activity: neither of which demonstrate somnolescent activity

## CCCCCCCC/C=C\CCCCCCCC(=O)O [oleic acid, cis-9-octadecenoic acid, reference compound]
[1]; pH 10.0, non-linear weighted least-squares fit, 10 to 100 μM oleamide, read-out: Ki
  Ki: 6 µM
[4]
  somnolescent activity: neither of which demonstrate somnolescent activity

## O=S(=O)(F)Cc1ccccc1 [phenylmethylsulfonyl fluoride, reference compound]
[1]
  inhibition of oleamide hydrolase (in words): can be inhibited
